{"source": "patent US20240261272A1", "about": "“LPA1 ANTAGONISTS FOR TREATING INTERSTITIAL LUNG DISEASE” (Bristol-Myers Squibb Company, priority 2022, published 2024)", "key": {"participants with PPF": {"tested_on": "participants with PPF", "experiment": "Phase 2 study, PPF cohort: efficacy (rate of FVC decline in % of predicted, FVC)", "type": "in vivo, human", "details": "for Relative Reduction: table title, dose not given", "description": "(§1) A total of 123 participants with PPF were randomized. Participants (age ≥21 years) were randomized (1:1:1) to receive 30 mg or 60 mg Compound A or PBO twice daily for 26 weeks. […] Immunosuppressive medications (mycophenolate mofetil, mycophenolic acid, azathioprine and/or tacrolimus) were permitted only if dosing is stable for ≥6 months prior to screening. If receiving antifibrotic agents pirfenidone or nintedanib, patients had to receive a stable dosage for ≥3 months prior to screening and during the screening period; if not receiving pirfenidone or nintedanib, patients had to be naive to both drugs or not have received either 4 weeks prior to Day 1. A total of 47 (38.2%) subjects were receiving antifibrotic treatment (with or without immunosuppression therapy). Of those subjects, 34 were being treated with nintedanib and 13 with pirfenidone. Participants were stratified by usual interstitial pneumonia (UIP) pattern (presence versus absence) and background therapy (antifibrotics +/−ILD-targeted immunosuppression versus ILD-targeted immunosuppression alone versus none).UIP pattern was present in 52% of subjects and unclassifiable ILD was he most common disease categorization.\nThe study was not powered to detect statistical significance (no formal testing). No target effect size was defined in the study design. There were two estimand approaches for analysis: Treatment Policy: Effect of treatment with dose reduction as part of treatment regimen.\nWhile-On Treatment: Effect of treatment without dose reduction.\nThe main efficacy endpoint, rate of FVC decline (in % of predicted) from baseline to wk-26 in the PPF cohort, was estimated using a linear mixed-effects model utilizing all FVC timepoints. It was analyzed under a primary estimand (utilizing all data, treatment policy strategy), and under supplementary estimand (utilizing all data up to the point of dose reduction, while-on-treatment strategy). Analysis was performed in the overall population as well as in sub-groups by 1) background anti-fibrotic treatment or not 2) UIP radiographic pattern (presence or not). The mean baseline ppFVC was 66.700 for the PPF cohort."}, "[1]": {"experiment": "Phase 2 study, PPF cohort: safety, adverse events, prespecified blood pressure reduction criteria, dose reductions", "type": "in vivo, human", "details": "for Asymptomatic blood pressure reduction, patients (%) / Asymptomatic blood pressure reduction, patients, no. / Symptomatic blood pressure reduction, patients (%) / Symptomatic blood pressure reduction, patients, no.: prespecified criteria", "description": "as §1\nPatient is experiencing any of the following, confirmed by retest within 15 minutes: • Seated systolic blood pressure <85 mmHg • Seated diastolic blood pressure <55 mmHg • Orthostatic hypotension\nPatient is experiencing symptoms that, in the investigator's opinion, could be associated with a reduction in blood pressure and is also experiencing at least one of the following, confirmed by retest within 15 minutes: • Seated systolic blood pressure <100 mmHg or seated diastolic blood pressure <60 mmHg • Decrease of seated systolic blood pressure of ≥20 mmHg from the previous visit or decrease of seated diastolic blood pressure of ≥10 mmHg from the previous visit • Orthostatic hypotension • Orthostatic tachycardia"}}, "data": [{"smiles": "CCCN(C)C(=O)OCc1c(-c2ccc(O[C@H]3CCC[C@H](C(=O)O)C3)c(C)n2)nnn1C", "note": "[Compound A, (1S,3S)-3-((2-methyl-6-(1-methyl-5-(((methyl(propyl)carbamoyl)-oxy)methyl)-1H-1,2,3-triazol-4-yl)pyridin-3-yl)oxy)cyclohexane-1-carboxylic acid]", "values": [{"measurement": "dose response (in words)", "setting": "participants with PPF; PPF cohort, 30 mg and 60 mg", "result": "Clear dose response"}, {"measurement": "mean observed change from baseline in ppFVC percentage and FVC versus placebo (in words)", "setting": "participants with PPF; PPF cohort, 30 mg and 60 mg, FIGS. 10 and 11", "result": "show improvement over placebo at week 8"}, {"measurement": "consistency of efficacy across sub-groups (in words)", "setting": "participants with PPF; PPF cohort, irrespective of background antifibrotics or of UIP pattern", "result": "Efficacy consistent in all sub-groups"}, {"measurement": "FVC (% Predicted) Rate of Decline, Difference", "setting": "participants with PPF; PPF, 30 mg - placebo, UIP Present, Primary Estimand", "result": 0.88, "unit": "% Predicted"}, {"measurement": "FVC (% Predicted) Rate of Decline, Slope", "setting": "participants with PPF; PPF, 30 mg, Not Receiving Antifibrotic Treatment, Supplementary Estimand", "result": "−2.83", "unit": "% Predicted"}, {"measurement": "FVC (% Predicted) Rate of Decline, Slope", "setting": "participants with PPF; PPF, 30 mg, Overall Population, Primary Estimand - Treatment Policy", "result": "−2.7", "unit": "% Predicted"}, {"measurement": "FVC (% Predicted) Rate of Decline, Slope", "setting": "participants with PPF; PPF, 30 mg, Receiving Antifibrotic Treatment, Supplementary Estimand", "result": "−1.8", "unit": "% Predicted"}, {"measurement": "FVC (% Predicted) Rate of Decline, Slope", "setting": "participants with PPF; PPF, 30 mg, UIP Absent, Supplementary Estimand", "result": "−2.24", "unit": "% Predicted"}, {"measurement": "FVC (% Predicted) Rate of Decline, Slope", "setting": "participants with PPF; PPF, 30 mg, UIP Present, Primary Estimand", "result": "−3.07", "unit": "% Predicted"}, {"measurement": "FVC (% Predicted) Rate of Decline, Difference", "setting": "participants with PPF; PPF, 60 mg - placebo, UIP Absent, Supplementary Estimand", "result": 3.8, "unit": "% Predicted"}, {"measurement": "FVC (% Predicted) Rate of Decline, Slope", "setting": "participants with PPF; PPF, 60 mg, Not Receiving Antifibrotic Treatment, Supplementary Estimand", "result": "−1.56", "unit": "% Predicted"}, {"measurement": "FVC (% Predicted) Rate of Decline, Slope", "setting": "participants with PPF; PPF, 60 mg, Overall Population, Supplementary Estimand - While On Treatment", "result": "−1.3", "unit": "% Predicted"}, {"measurement": "FVC (% Predicted) Rate of Decline, Slope", "setting": "participants with PPF; PPF, 60 mg, Receiving Antifibrotic Treatment, Supplementary Estimand", "result": "−1.1", "unit": "% Predicted"}, {"measurement": "FVC (% Predicted) Rate of Decline, Slope", "setting": "participants with PPF; PPF, 60 mg, UIP Absent, Supplementary Estimand", "result": "−0.7", "unit": "% Predicted"}, {"measurement": "FVC (% Predicted) Rate of Decline, Slope", "setting": "participants with PPF; PPF, 60 mg, UIP Present, Primary Estimand", "result": "−1.46", "unit": "% Predicted"}, {"measurement": "Treatment difference 60 mg v placebo, rate of decline in ppFVC baseline to Week 26", "setting": "participants with PPF; PPF, Non UIP subgroup", "result": 3.80}, {"measurement": "Relative Reduction", "setting": "participants with PPF; PPF, Not Receiving Antifibrotic Treatment, Primary Estimand", "result": "Estimand - Treatment Policy (Relative Reduction = 68.5%)"}, {"measurement": "Relative Reduction", "setting": "participants with PPF; PPF, Not Receiving Antifibrotic Treatment, Supplementary Estimand", "result": "Estimand - While on Treatment (Relative Reduction = 62.6%)"}, {"measurement": "Relative Reduction", "setting": "participants with PPF; PPF, Receiving Antifibrotic Treatment, Primary Estimand", "result": "Estimand - Treatment Policy (Relative Reduction = 85%)"}, {"measurement": "Relative Reduction", "setting": "participants with PPF; PPF, Receiving Antifibrotic Treatment, Supplementary Estimand", "result": "Estimand - While on Treatment (Relative Reduction = 74.9%)"}, {"measurement": "Relative Reduction", "setting": "participants with PPF; PPF, UIP Absent, Primary Estimand", "result": "Policy Strategy (Relative Reduction = 83.6%)"}, {"measurement": "Relative Reduction", "setting": "participants with PPF; PPF, UIP Absent, Supplementary Estimand", "result": "While on Treatment (Relative Reduction = 84.4%)"}, {"measurement": "Relative Reduction", "setting": "participants with PPF; PPF, UIP Present, Primary Estimand", "result": "Policy Strategy (Relative Reduction = 63%)"}, {"measurement": "Relative Reduction", "setting": "participants with PPF; PPF, UIP Present, Supplementary Estimand", "result": "While on Treatment (Relative Reduction = 54%)"}, {"measurement": "day-1 blood pressure reduction (in words)", "setting": "[1]", "result": "dose dependent day-1 blood pressure reduction"}, {"measurement": "hepatobiliary toxicity (in words)", "setting": "[1]", "result": "No hepatobiliary toxicity"}, {"measurement": "tolerability and safety findings (in words)", "setting": "[1]", "result": "well-tolerated, demonstrated no unexpected safety findings"}, {"measurement": "Dose dependent low BP thresholds (\"events\")", "setting": "[1]; 30 mg", "result": 30, "unit": "%"}, {"measurement": "≥1 TEAE related to study drug, no.", "setting": "[1]; 30 mg (n = 40)", "result": 7}, {"measurement": "≥1 TEAE, no.", "setting": "[1]; 30 mg (n = 40)", "result": 33}, {"measurement": "≥1 TESAE, no.", "setting": "[1]; 30 mg (n = 40)", "result": 4}, {"measurement": "≥1 TEAE related to study drug, no.", "setting": "[1]; 60 mg (n = 42)", "result": 11}, {"measurement": "≥1 TEAE, no.", "setting": "[1]; 60 mg (n = 42)", "result": 28}, {"measurement": "≥1 TESAE, no.", "setting": "[1]; 60 mg (n = 42)", "result": 5}, {"measurement": "Orthostatic hypotension (asymptomatic and symptomatic), comparison of groups (in words)", "setting": "[1]; 60 mg group", "result": "higher in the 60 mg group than for other groups"}, {"measurement": "Dose reductions, patients (%)", "setting": "[1]; 30-mg Compound A (n = 40)", "result": "(15.0) %"}, {"measurement": "Dose reductions, patients, no.", "setting": "[1]; 30-mg Compound A (n = 40)", "result": 6}, {"measurement": "Orthostatic hypotension (under asymptomatic blood pressure reduction), patients (%)", "setting": "[1]; 30-mg Compound A (n = 40)", "result": "(15.0) %"}, {"measurement": "Orthostatic hypotension (under asymptomatic blood pressure reduction), patients, no.", "setting": "[1]; 30-mg Compound A (n = 40)", "result": 6}, {"measurement": "Orthostatic hypotension (under symptomatic blood pressure reduction), patients (%)", "setting": "[1]; 30-mg Compound A (n = 40)", "result": "(2.5) %"}, {"measurement": "Orthostatic hypotension (under symptomatic blood pressure reduction), patients, no.", "setting": "[1]; 30-mg Compound A (n = 40)", "result": 1}, {"measurement": "Asymptomatic blood pressure reduction, patients (%)", "setting": "[1]; 30-mg Compound A (n = 40)", "result": "(22.5) %"}, {"measurement": "Asymptomatic blood pressure reduction, patients, no.", "setting": "[1]; 30-mg Compound A (n = 40)", "result": 9}, {"measurement": "Symptomatic blood pressure reduction, patients (%)", "setting": "[1]; 30-mg Compound A (n = 40)", "result": "(5.0) %"}, {"measurement": "Symptomatic blood pressure reduction, patients, no.", "setting": "[1]; 30-mg Compound A (n = 40)", "result": 2}, {"measurement": "Dose reductions, patients (%)", "setting": "[1]; 60-mg Compound A (n = 42)", "result": "(11.9) %"}, {"measurement": "Dose reductions, patients, no.", "setting": "[1]; 60-mg Compound A (n = 42)", "result": 5}, {"measurement": "Orthostatic hypotension (under asymptomatic blood pressure reduction), patients (%)", "setting": "[1]; 60-mg Compound A (n = 42)", "result": "(26.2) %"}, {"measurement": "Orthostatic hypotension (under asymptomatic blood pressure reduction), patients, no.", "setting": "[1]; 60-mg Compound A (n = 42)", "result": 11}, {"measurement": "Orthostatic hypotension (under symptomatic blood pressure reduction), patients (%)", "setting": "[1]; 60-mg Compound A (n = 42)", "result": "(9.5) %"}, {"measurement": "Orthostatic hypotension (under symptomatic blood pressure reduction), patients, no.", "setting": "[1]; 60-mg Compound A (n = 42)", "result": 4}, {"measurement": "Asymptomatic blood pressure reduction, patients (%)", "setting": "[1]; 60-mg Compound A (n = 42)", "result": "(31.0) %"}, {"measurement": "Asymptomatic blood pressure reduction, patients, no.", "setting": "[1]; 60-mg Compound A (n = 42)", "result": 13}, {"measurement": "Symptomatic blood pressure reduction, patients (%)", "setting": "[1]; 60-mg Compound A (n = 42)", "result": "(14.3) %"}, {"measurement": "Symptomatic blood pressure reduction, patients, no.", "setting": "[1]; 60-mg Compound A (n = 42)", "result": 6}, {"measurement": "marked laboratory abnormalities (in words)", "setting": "[1]; among treatment groups", "result": "No notable imbalances in marked laboratory abnormalities among treatment groups"}]}]}
